Experimental data reported in PMC6473744, “Antiproliferative Activity of (-)-Rabdosiin Isolated from Ocimum sanctum L” (Medicines, 2019).
Values after ≈ are worked out from the molar mass of the structure shown.

Experiments:
[1] = test system: MCF-7; test: MTT reduction assay, cytotoxicity; type: cell-based, human; details: for IC50: Homo sapiens, MCF7
Experimental: Compounds were prepared at a stock solution of 10.0 mg/mL in DMSO and the extract at 20.0 mg/mL in DMSO. […] Cytotoxicity was evaluated by the MTT reduction assay, which determines the effect of treatment with an exogenously added agent on the viability of the cell population. […] Further, cells were incubated with the compounds for 72 h at 37 °C in a 5% CO2 incubator. The MTT reagent (Sigma-Aldrich, Darmstadt, Germany; 1 mg/mL in phosphate buffered saline (PBS); 100 μL/well) was added during the last 4 h of incubation. The formazan crystals formed were dissolved by adding 0.1 M HCl in 2-propanol (100 μL/well) and absorption was measured using an ELISA reader (Denley WeScan, Finland) at 545 nm with reference filter set at 690 nm. All cultures were set in triplicate, whereas cells incubated in complete medium or in medium containing the equivalent amount of DMSO, as well as cells incubated in the presence of doxorubicin (Sigma-Aldrich) were used as negative and positive controls, respectively.
All experiments were performed at least three times.

[2] = test system: HCT-116; test: MTT reduction assay, cytotoxicity; type: cell-based; details: Homo sapiens
Experimental: (§1) The cytotoxic activity of the compounds, as well as of the initial methanol extract, were tested against three human cancer cell lines: MCF-7 (breast; estrogen receptor positive (ER+), progesterone receptor (PR)+, and HER2 negative (-)), SKBR3 (breast; ER-, PR-, and HER2+), and HCT-116 (colon). All cell lines were maintained in RPMI-1640, supplemented with 10% heat-inactivated fetal bovine serum (FBS), 10 mM Hepes, 10 U/mL penicillin, 10 U/mL streptomycin, and […] (all from Lonza, Cologne, Germany) (thereafter referred to as complete medium) at 37 °C in a humidified 5% CO2 incubator.
(§2) Compounds were prepared at a stock solution of 10.0 mg/mL in DMSO and the extract at 20.0 mg/mL in DMSO. Prior to their use, they were diluted in plain RPMI-1640. Cytotoxicity was evaluated by the MTT reduction assay, which determines the effect of treatment with an exogenously added agent on the viability of the cell population. Briefly, cells were plated in 96-well plates (Greiner Bio-One GmbH, Frickenhausen, Germany; 5 × 10^3 cells/well) and incubated at 5% CO2 and 95% air at 37 °C for 24 h, in order to adhere. Further, cells were incubated with the compounds for 72 h at 37 °C in a 5% CO2 incubator. The MTT reagent (Sigma-Aldrich, Darmstadt, Germany; 1 mg/mL in phosphate buffered saline (PBS); 100 μL/well) was added during the last 4 h of incubation. The formazan crystals formed were dissolved by adding 0.1 M HCl in 2-propanol (100 μL/well) and absorption was measured using an ELISA reader (Denley WeScan, Finland) at 545 nm with reference filter set at 690 nm. All cultures were set in triplicate, whereas cells incubated in complete medium or in medium containing the equivalent amount of DMSO, as well as cells incubated in the presence of doxorubicin (Sigma-Aldrich) were used as negative and positive controls, respectively. The half maximal inhibitory concentration (IC50) was calculated according to the formula: 100(A0 − A)/A0 = 50, where A and A0 are optical densities of wells exposed to the compounds and control wells, respectively.
(§3) The compounds were tested at a concentration range of 200.0 to 6.25 μg/mL and the extract at 750.0 to 1.25 μg/mL. […] All experiments were performed at least three times.

[3] = test system: SKBR3; test: MTT reduction assay, cytotoxicity; type: cell-based; details: Homo sapiens, SK-BR-3
Experimental: as §1, §2, §3

[4] = test system: HCT-116; test: Annexin V/PI flow cytometry analysis; type: cell-based, human; details: HCT-116, 80 μg/mL, 72 h
Experimental: (§4) MCF-7, SKBR3 and HCT-116 cells were incubated with compound 6 and analyzed with flow cytometry following staining with annexin V and propidium iodide (PI). […] Cells were detached with 2 mM EDTA in Dulbecco’s PBS (DPBS), harvested, centrifuged in cold PBS (1500 rpm; 5 min), and stained with the Annexin V-FITC Apoptosis Detection Kit (BioLegend, Fell, Germany; cat# 640914), according to the manufacturers’ instructions. In brief, cells were resuspended in binding buffer, then annexin V-FITC (5 μL) and PI (10 μL; 0.03 μg/sample) were added, mixed, and incubated with the cells for 15 min in the dark at room temperature. The volume was adjusted to 500 μL with binding buffer and the cell suspension was immediately analyzed in a FACSCanto II (BD Biosciences, San Diego, CA, USA) using FACSDiva software (V7, BD Biosciences).

[5] = test system: MCF-7; test: Annexin V/PI flow cytometry analysis; type: cell-based, human; details: MCF-7, 80 μg/mL, 72 h
Experimental: as §4

[6] = test system: SKBR3; test: Annexin V/PI flow cytometry analysis; type: cell-based, human; details: SKBR3, 80 μg/mL, 72 h
Experimental: as §4

[7] = test system: human peripheral blood mononuclear cells (PBMCs); test: Cytotoxic effect against PBMCs, annexin V/PI flow cytometry; type: cell-based; details: 24 h
Experimental: as §4
Compound 6 was additionally assessed for its cytotoxicity against human peripheral blood mononuclear cells (PBMCs) isolated from healthy blood donors’ peripheral blood as previously described. Prior to blood draw, individuals gave their informed consent according to the regulations approved by the 2nd Peripheral Blood Transfusion Unit and Hemophiliac Centre, “Laikon” General Hospital Institutional Review Board, Athens, Greece. PBMCs were seeded in 24-well plates (5 × 10^5/mL; 2 mL/well) and exposed to 2 concentrations of compound 6: 80 μg/mL and 40 μg/mL. PBMCs were collected, stained as described in 2.5 and analyzed by flow cytometry.

[8] = test system: MCF-7, SKBR3, and HCT-116 cells; test: Annexin V/PI flow cytometry, stated for all cell lines together; type: cell-based, human; details: 72 h
Experimental: as §4

[9] = test system: MCF-7, SKBR3, and HCT-116; test: MTT reduction assay, stated for all cell lines together; type: cell-based; details: Homo sapiens; all cell lines tested, positive control
Experimental: as §1
Compounds were prepared at a stock solution of 10.0 mg/mL in DMSO and the extract at 20.0 mg/mL in DMSO. Prior to their use, they were diluted in plain RPMI-1640. Cytotoxicity was evaluated by the MTT reduction assay, which determines the effect of treatment with an exogenously added agent on the viability of the cell population. […] The formazan crystals formed were dissolved by adding 0.1 M HCl in 2-propanol (100 μL/well) and absorption was measured using an ELISA reader (Denley WeScan, Finland) at 545 nm with reference filter set at 690 nm. […] The half maximal inhibitory concentration (IC50) was calculated according to the formula: 100(A0 − A)/A0 = 50, where A and A0 are optical densities of wells exposed to the compounds and control wells, respectively. […]

[10] = MCF-7, 72 h exposure, mean ± SD of three experiments
[11] = 40 μg/mL, range over the cell lines

## O=C(O[C@H](Cc1ccc(O)c(O)c1)C(=O)O)C1=Cc2cc(O)c(O)cc2[C@@H](c2ccc(O)c(O)c2)[C@@H]1C(=O)O[C@H](Cc1ccc(O)c(O)c1)C(=O)O [Compound 6, (-)-rabdosiin]
[1]; [10]
  IC50: 75 ± 2.12 µg/mL
[2]; HCT-116, 72 h exposure, mean ± SD of three experiments
  IC50: 84 ± 7.78 µg/mL
[3]; SKBR3, 72 h exposure, mean ± SD of three experiments
  IC50: 83 ± 3.54 µg/mL
[4]
  early apoptotic cells (annexin V+): 43.1%
  late apoptotic/necrotic cells (annexin V+/PI+): 10.2%
[5]
  early apoptotic cells (annexin V+): 44.9%
  late apoptotic/necrotic cells (annexin V+/PI+): 12.3%
[6]
  early apoptotic cells (annexin V+): 40.1%
  late apoptotic/necrotic cells (annexin V+/PI+): 9.1%
[7]; donor 1, 40 μg/mL
  early apoptotic PBMCs: 1.8%
  late apoptotic/necrotic PBMCs: 1.7%
[7]; donor 1, 80 μg/mL
  early apoptotic PBMCs: 2.8%
  late apoptotic/necrotic PBMCs: 3.0%
[7]; donor 2, 40 μg/mL
  early apoptotic PBMCs: 2.1%
  late apoptotic/necrotic PBMCs: 1.9%
[7]; donor 2, 80 μg/mL
  early apoptotic PBMCs: 4.3%
  late apoptotic/necrotic PBMCs: 3.1%
[8]; [11]
  early apoptotic cells: 13.5–20.1%
  late apoptotic/necrotic cells: 3.9–6.5%
[8]; 80 μg/mL, all cell lines
  cells driven to apoptosis: ca. 50%

## O=C(O[C@H](Cc1ccc(O)c(O)c1)C(=O)O)[C@H]1[C@H](C(=O)O[C@H](Cc2ccc(O)c(O)c2)C(=O)O)[C@H](c2ccc(O)c(O)c2)[C@H]1c1ccc(O)c(O)c1 [Compound 7, shimobashiric acid C]
[1]; [10]
  IC50 ± SD: 142 ± 3.54 µg/mL (≈ 197 µM)

## O=C(O)[C@H]1O[C@@H](Oc2cc(O)c3c(=O)cc(-c4ccc(O)c(O)c4)oc3c2)[C@H](O)[C@@H](O)[C@@H]1O [Compound 9, luteolin 7-O-β-D-glucuronide]
[1]; [10]
  IC50 ± SD: 141 ± 1.41 µg/mL (≈ 305 µM)

## O=C(O)/C=C/c1ccc(O[C@@H]2O[C@H](CO)[C@@H](O)[C@H](O)[C@H]2O)cc1 [Compound 11, (E)-p-coumaroyl 4-O-β-D-glucoside]
[1]; [10]
  IC50 ± SD: 139 ± 7.78 µg/mL (≈ 426 µM)

## O=C(O)C(O)Cc1ccc(O)c(O)c1 (centres unmarked) [Compound 12, 3-(3,4-dihydroxyphenyl) lactic acid]
[1]; [10]
  IC50: 140 ± 12 µg/mL

## O=C(O)c1ccc(O)c(O)c1 [Compound 13, protocatechuic acid]
[1]; [10]
  IC50: 140 ± 4.95 µg/mL

## COc1cccc2c1C(=O)c1c(O)c3c(c(O)c1C2=O)C[C@@](O)(C(=O)CO)C[C@@H]3O[C@H]1C[C@H](N)[C@H](O)[C@H](C)O1 [Doxorubicin, reference compound]
[1]; MCF-7, positive control
  IC50: 92 ± 7 nM
[2]; HCT-116, positive control
  IC50: 192 ± 29 nM
[3]; SKBR3, positive control
  IC50: 95 ± 8 nM
[9]
  IC50: ≤ 200 nM
